Data reported in the supplement of paper PMC11628255, “Interference of metal ions on the bioluminescent signal of firefly, Renilla, and NanoLuc luciferases in high-throughput screening assays” (Frontiers in Chemistry, 2024).
± gives the standard deviation of the averaged measurements.

Key:
Assay in all cases: normalised percent inhibition of luminescence (vs positive and negative controls); higher = stronger inhibition
[1] = test system: Renilla luciferase (RLuc); settings: screening conditions buffer
Protocol: (§1)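 Concentration-response (>=11 concentrations) of metal salts on purified FLuc, NLuc or RLuc luminescence in screening (SC) or 100 mM HEPES (H) buffer; salt pre-incubated with enzyme 10 min at RT, read 10 min after substrate. Normalised percent inhibition vs plate positive (PTC-124, isradipine, BTS) and DMSO negative controls; triplicate wells.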

[2] = test system: NanoLuc luciferase (NLuc); settings: screening conditions buffer
Protocol: as §1

[3] = test system: firefly luciferase (FLuc)
Protocol: as §1

O=[N+]([O-])[O-].O=[N+]([O-])[O-].[Zn+2] [zinc nitrate]
normalised percent inhibition [%]
Settings	[1]	[2]
metal salt concentration 0.002 mM	-5.83 ± 5.5	0.728 ± 3.3
metal salt concentration 0.005 mM	-7.07 ± 11	-0.897 ± 5.4
metal salt concentration 0.01 mM	-4.95 ± 6.5	10.7 ± 4.8
metal salt concentration 0.02 mM	-5.53 ± 0.89	7.25 ± 7.2
metal salt concentration 0.05 mM	-2.83 ± 13	35.8 ± 7
metal salt concentration 0.1 mM	-8.31 ± 7.2	66 ± 15
metal salt concentration 0.2 mM	-2.75 ± 4.6	78.9 ± 2.5
metal salt concentration 0.5 mM	-0.599 ± 11	77 ± 14
metal salt concentration 1 mM	8.71 ± 11	89 ± 11
metal salt concentration 2.5 mM	-1 ± 8.9	111 ± 26
metal salt concentration 5 mM	85.5 ± 9.5	126 ± 30

normalised percent inhibition [%], [3]
Settings	100 mM HEPES buffer	screening conditions buffer
metal salt concentration 10 nM	16.5 ± 1.9	–
metal salt concentration 50 nM	-0.254 ± 9.7	–
metal salt concentration 0.0001 mM	-1.38 ± 27	–
metal salt concentration 0.00025 mM	5.03 ± 18	–
metal salt concentration 0.0005 mM	35.7 ± 11	–
metal salt concentration 0.001 mM	47.4 ± 13	–
metal salt concentration 0.002 mM	–	21.1 ± 28
metal salt concentration 0.005 mM	–	16.4 ± 15
metal salt concentration 0.01 mM	–	20.5 ± 20
metal salt concentration 0.02 mM	–	17.9 ± 15
metal salt concentration 0.025 mM	86.7 ± 4.5	–
metal salt concentration 0.05 mM	92.6 ± 3.1	11.7 ± 13
metal salt concentration 0.1 mM	96.3 ± 1.4	28.6 ± 18
metal salt concentration 0.2 mM	–	15 ± 18
metal salt concentration 0.5 mM	100.2 ± 0.33	29.1 ± 5.4
metal salt concentration 1 mM	100.1 ± 0.51	46.4 ± 13
metal salt concentration 2.5 mM	100.4 ± 0.27	100.6 ± 1
metal salt concentration 5 mM	100.2 ± 0.31	100.2 ± 0.28
